Experimental data published in PubChem BioAssay (NCI).
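Where inhibition never reached the appropriate level, the endpoint shown equals the highest concentration tested. Otherwise, values were interpolated linearly from a five-concentration, 48-hour dose response in 96-well plates. Here, GI50 denotes the concentration required for 50% inhibition of growth. TGI marks complete inhibition of growth.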

Tests used:
Experiment in all cases: inhibition of tumour cell growth, NCI panel, 48 h
IGROV1 ovarian = tested on: IGROV1 ovarian
SK-MEL-5 melanoma = tested on: SK-MEL-5 melanoma
OVCAR-5 ovarian = tested on: OVCAR-5 ovarian
HCT-116 colon = tested on: HCT-116 colon
U251 CNS = tested on: U251 CNS
SK-MEL-2 melanoma = tested on: SK-MEL-2 melanoma
MOLT-4 leukemia = tested on: MOLT-4 leukemia
A498 renal = tested on: A498 renal
MDA-N = tested on: MDA-N
KM20L2 colon = tested on: KM20L2 colon

Compound | TGI (IGROV1 ovarian) | TGI (SK-MEL-5 melanoma) | TGI (OVCAR-5 ovarian) | TGI (HCT-116 colon) | TGI (U251 CNS) | TGI (SK-MEL-2 melanoma) | TGI (MOLT-4 leukemia) | TGI (A498 renal) | TGI (MDA-N) | TGI (KM20L2 colon) | GI50 (IGROV1 ovarian) | GI50 (SK-MEL-5 melanoma) | GI50 (OVCAR-5 ovarian) | GI50 (HCT-116 colon) | GI50 (U251 CNS) | GI50 (SK-MEL-2 melanoma) | GI50 (MOLT-4 leukemia) | GI50 (A498 renal) | GI50 (MDA-N) | GI50 (KM20L2 colon)
COc1ccc(CC2c3cc4c(cc3CCN2C)OCO4)c(C=O)c1OC (configuration not stated) | > 100 µM | > 100 µM | > 100 µM | > 100 µM | > 100 µM | > 100 µM | > 100 µM | > 100 µM | > 100 µM | – | – | – | – | – | – | – | – | – | – | –
Cc1ccsc1C(=S)Nc1ccc(Cl)c(/C=N/OC(C)(C)C)c1 | > 100 µM | > 100 µM | > 100 µM | > 100 µM | 79.3 µM | > 100 µM | > 100 µM | 41.1 µM | > 100 µM | – | – | – | – | – | – | – | – | – | – | –
CCOC(=O)Cn1c(C(F)(F)F)nc2nc(Cl)c(Cl)nc21 | > 76.6 µM | 76.9 µM | > 100 µM | > 100 µM | > 100 µM | 60.2 µM | 97.6 µM | > 74 µM | > 100 µM | – | – | – | – | – | – | – | – | – | – | –
C1=C2/CC[C@H](Sc3ccccc3)C2C2(CCCCC/1)OCCO2 (some centres not stated) | > 100 µM | – | – | 37.1 µM | > 100 µM | 32.7 µM | > 100 µM | – | – | 37.1 µM | – | – | – | – | – | – | – | – | – | –
COC([CH2][Hg][n]1cnc2c1c(=O)n(C)c(=O)n2C)CN1C(=O)c2ccccc2S1(=O)=O (configuration not stated) | > 100 µM | > 100 µM | > 100 µM | > 100 µM | > 100 µM | > 100 µM | > 100 µM | > 100 µM | > 100 µM | – | > 100 µM | > 100 µM | > 100 µM | > 100 µM | > 100 µM | > 100 µM | > 100 µM | > 100 µM | > 100 µM | –
CCC[CH2][Sn]([CH2]CCC)([S]c1cccc2cccnc12)[S]c1cccc2cccnc12 | 0.53 µM | 0.534 µM | – | 0.303 µM | 0.409 µM | – | 0.397 µM | 0.6 µM | – | 0.474 µM | 0.224 µM | 0.201 µM | – | 0.155 µM | 0.197 µM | – | 0.109 µM | 0.254 µM | – | 0.215 µM
Nc1ccccc1S(=O)(=O)N(CC(=O)O)c1ccccc1 | > 100 µM | > 100 µM | > 100 µM | – | > 100 µM | > 100 µM | > 100 µM | > 100 µM | – | > 100 µM | – | – | – | – | – | – | – | – | – | –
Cc1ccc([N+](=O)[O-])cc1NC1=NCCO1 | > 100 µM | > 100 µM | > 100 µM | > 100 µM | > 100 µM | > 100 µM | > 100 µM | > 100 µM | > 100 µM | – | – | – | – | – | – | – | – | – | – | –
Cc1nc2c(ccc3ncccc32)[nH]1 | > 100 µM | > 100 µM | > 100 µM | – | > 100 µM | > 100 µM | > 100 µM | – | – | > 100 µM | – | – | – | – | – | – | – | – | – | –
COC(=O)/C(C#N)=C1\NC(=O)c2ccccc21 | > 100 µM | > 100 µM | > 100 µM | > 100 µM | > 100 µM | – | > 100 µM | > 100 µM | – | > 100 µM | – | – | – | – | – | – | – | – | – | –
C=CCOc1ccc2c(C)cc(=O)oc2c1C | > 100 µM | > 100 µM | > 100 µM | > 100 µM | > 100 µM | > 100 µM | > 100 µM | > 100 µM | > 100 µM | – | – | – | – | – | – | – | – | – | – | –
CC(C)=CCC\C(C)=C/C=C/C(C)=C\C=C\C(C)=C/C=C/C=C(C)\C=C\C=C(C)/C=C/C=C(/C)CCC=C(C)C | > 100 µM | > 100 µM | > 100 µM | > 100 µM | – | > 100 µM | > 100 µM | > 100 µM | > 100 µM | – | – | – | – | – | – | – | – | – | – | –
COC(=O)CC[N+]1=CCC(c2ccccc2)(c2ccccc2)O1 | > 100 µM | > 100 µM | > 100 µM | > 100 µM | > 100 µM | > 100 µM | > 100 µM | > 100 µM | > 100 µM | – | – | – | – | – | – | – | – | – | – | –
CC1(C)C(=O)/C=C\C(=O)C(C)(C)C2=CC=C(O2)C(C)(C)C(=O)/C=C\C(=O)C(C)(C)C2=CC=C1O2 | > 100 µM | – | > 100 µM | > 100 µM | > 100 µM | > 100 µM | > 100 µM | > 100 µM | – | > 100 µM | – | – | – | – | – | – | – | – | – | –
COc1cc2c(c3oc4c(O)cccc4c(=O)c13)CC(C(C)(O)CO)O2 (configuration not stated) | > 100 µM | > 100 µM | > 100 µM | > 100 µM | > 100 µM | > 100 µM | 62.2 µM | – | > 100 µM | – | – | – | – | – | – | – | – | – | – | –
CO/C(=N\N=C\c1ccc(C(F)(F)F)cc1)c1ccncc1 | – | – | > 10 µM | > 10 µM | > 10 µM | > 10 µM | > 10 µM | – | > 10 µM | – | – | – | – | – | – | – | – | – | – | –
COC(CCC[N+](C)(C)C)CC[N+](C)(C)C (configuration not stated) | > 100 µM | > 100 µM | > 100 µM | > 100 µM | > 100 µM | – | > 100 µM | – | > 100 µM | – | – | – | – | – | – | – | – | – | – | –
